In ChEMBL document CHEMBL1145965, “4-Substituted 4-hydroxycyclohexa-2,5-dien-1-ones with selective activities against colon and renal cancer cell lines” (J Med Chem, 2003) one finds GI50 and CC50 data, which are given here for eleven molecules.

Assay type in all cases: functional
Test [1] relates to Panel NCI-60 (60 carcinoma cell lines). Nature of the test: In vitro mean growth inhibitory activity against 60-cell panel. Particulars: Homo sapiens.
The test system is the same in test [2]. Nature of the test: In vitro mean growth lethal concentration against 60-cell panel. To be noted: Homo sapiens, read-out: Mean LC50.
Test [3] shares this test system. Nature of the test: In vitro mean growth lethal concentration in colon subpanel against 60-cell panel. Particulars: Homo sapiens, read-out: Mean LC50.
Test [4] shares this test system. Nature of the test: In vitro mean growth lethal concentration in renal subpanel against 60-cell panel. To be noted: Homo sapiens, read-out: Mean LC50.
A further test concerns ACHN. Nature of the test: In vitro lethal concentration against most sensitive ACHN cell line. To be noted: Homo sapiens, read-out: LC50 (the source's name).
A further test has as its system HCT-116. Nature of the test: In vitro lethal concentration against most sensitive colon HCT116 cell line. Particulars: Homo sapiens, read-out: LC50 (the source's name).
The test system of the next test is SW-620. Nature of the test: In vitro lethal concentration against least sensitive colon SW-620 cell line. To be noted: Homo sapiens, read-out: LC50 (the source's name).

Molecule `O=C1C=CC(O)(c2nc3ccccc3s2)C(Cl)=C1` (configuration not stated) registered a GI50 in test [1] of 0.46 µM. For the same molecule, the CC50 is 6.31 µM in test [2]; 2.31 µM in test [3]; 1.8 µM in test [4]; 0.58 µM with ACHN; 0.68 µM in the test with HCT-116; > 100 µM in the test with SW-620.

For the molecule `O=C1C=CC(O)(c2cc3ccccc3s2)c2ccccc21` (configuration not stated), in test [1], growth was halved (GI50) at 2.29 µM. Further, the CC50 in test [2] is 70.8 µM; in test [3] it was > 100 µM; in test [4], > 100 µM; with ACHN, > 100 µM; in the test on HCT-116, > 100 µM; with SW-620 it was > 100 µM.

For `COC1(c2nc3c(F)cccc3s2)C=CC(=NS(=O)(=O)c2ccc(C)cc2)C=C1` (configuration not stated), in test [1], the GI50 came to 2.57 µM. The CC50 turned out to be 27.5 µM in test [2]; 26.9 µM in test [3]; 14.4 µM in test [4]; 7.59 µM with ACHN; 57.5 µM with HCT-116; 67.6 µM in the test on SW-620.

In the case of `O=C1/C(=C\c2ccccc2)CC(O)(c2nc3ccccc3s2)C/C1=C/c1ccccc1` (configuration not stated), the GI50 in test [1] worked out at 2.69 µM. Besides, the CC50 in test [2] is 47.9 µM; in test [3], 17.4 µM; in test [4] it was 37.2 µM; in the test with ACHN, 30.9 µM; in the test with HCT-116 it was 5.37 µM; in the test with SW-620, > 100 µM.

With `O=C1CCC(O)(c2nc3ccccc3s2)CC1`, in test [1], the GI50 is > 100 µM. For the same molecule, the CC50 (in test [2]; in test [3]; in test [4]; in the test on ACHN; in the test on HCT-116; with SW-620) was > 100 µM in each case.

`COc1ccc2nc(C3(OC)C=CC(=NS(=O)(=O)c4ccc(C)cc4)C=C3)sc2c1` (configuration not stated) displayed a GI50 in test [1] of 1.91 µM. The CC50 stood at 18.6 µM in test [2]; 13.2 µM in test [3]; 11.2 µM in test [4]; 8.32 µM in the test on ACHN; 5.01 µM in the test on HCT-116; 77.6 µM with SW-620.

For the molecule `CC1=CC(O)(c2nc3ccccc3s2)C=C(C)C1=O`, in test [1], the GI50 came out at 38.2 µM. In addition, the CC50 (in test [2]; in test [3]; in test [4]; with ACHN; in the test on HCT-116; with SW-620) was > 100 µM each time.

Turning to `COC1(c2nc3ccc(C)cc3s2)C=CC(=NS(=O)(=O)c2ccc(C)cc2)C=C1` (configuration not stated), the concentration for 50% growth inhibition (GI50) in test [1] is 1.2 µM. Besides, the CC50 in test [2] turned out to be 19.5 µM; in test [3] it was 9.92 µM; in test [4], 10.6 µM; in the test on ACHN, 6.92 µM; in the test with HCT-116, 1.78 µM; in the test on SW-620 it was 95.5 µM.

With `COC1(c2nc3ccc(F)cc3s2)C=CC(=NS(=O)(=O)c2ccc(C)cc2)C=C1` (configuration not stated), the GI50 in test [1] was found to be 1.74 µM. In addition, the CC50 in test [2] is 30.2 µM; in test [3] it was 25.6 µM; in test [4] it was 19.1 µM; with ACHN it was > 100 µM; in the test with HCT-116, 5.25 µM; with SW-620, > 100 µM.

As for `O=C1C=CC(O)(c2cc3ccccc3o2)c2ccccc21` (configuration not stated), the concentration for 50% growth inhibition (GI50) in test [1] came to 0.74 µM. The CC50 in test [2] stood at 7.76 µM; in test [3], 7.76 µM; in test [4] it was 6.48 µM; in the test on ACHN, 5.75 µM; in the test on HCT-116 it was 4.9 µM; in the test with SW-620 it was 3.55 µM.

Turning to `COC1(c2nc3ccccc3s2)C=CC(=NS(=O)(=O)c2ccc(C)cc2)C=C1` (configuration not stated), in test [1], growth was halved (GI50) at 15.5 µM. The CC50 is 83.2 µM in test [2]; > 100 µM in test [3]; > 100 µM in test [4]; > 100 µM with ACHN; 44.7 µM in the test with HCT-116; > 100 µM with SW-620.

As usually defined, the GI50 is the concentration at which growth is held to half of that of the control. Low readings indicate greater sensitivity of the cells, high ones lower sensitivity of the cells.
